Key:
hOATP2B1 [1] = target: T1, hOATP2B1 (Homo sapiens, UniProt O94956); experiment: Cellular uptake assay: intracellular accumulation in HEK293-hOATP2B1 vs HEK293-MOCK cells (HPLC-MS/MS); conditions: 0.25 μM, HBSS pH7.4, 37 °C, 20 min
T1 sequence (O94956 1-709): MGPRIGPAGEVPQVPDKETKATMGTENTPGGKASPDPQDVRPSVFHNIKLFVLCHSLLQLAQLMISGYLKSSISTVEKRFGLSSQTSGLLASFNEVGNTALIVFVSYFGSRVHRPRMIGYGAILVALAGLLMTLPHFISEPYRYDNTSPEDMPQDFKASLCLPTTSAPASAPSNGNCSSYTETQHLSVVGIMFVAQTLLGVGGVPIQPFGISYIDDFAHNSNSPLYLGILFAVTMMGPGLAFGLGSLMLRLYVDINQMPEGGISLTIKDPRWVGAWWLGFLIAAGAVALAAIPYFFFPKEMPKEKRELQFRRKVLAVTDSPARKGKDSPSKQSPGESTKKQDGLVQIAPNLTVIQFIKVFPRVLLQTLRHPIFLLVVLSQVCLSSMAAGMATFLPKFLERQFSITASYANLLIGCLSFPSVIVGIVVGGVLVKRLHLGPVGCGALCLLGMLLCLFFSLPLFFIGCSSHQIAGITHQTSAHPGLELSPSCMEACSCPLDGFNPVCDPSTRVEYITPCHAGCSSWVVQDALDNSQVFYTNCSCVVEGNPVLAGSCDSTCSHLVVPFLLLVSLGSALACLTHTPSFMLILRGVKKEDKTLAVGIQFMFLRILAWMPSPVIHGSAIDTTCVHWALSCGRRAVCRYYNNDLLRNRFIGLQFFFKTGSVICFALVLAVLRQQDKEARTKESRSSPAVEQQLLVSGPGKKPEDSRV

hOATP2B1 [2] = target: T1, hOATP2B1; experiment: pH dependent uptake of morphine and M6G in HEK293-hOATP2B1 cells; conditions: 0.25 μM, HBSS, 37 °C, 20 min
[3] = substrate: CN1CC[C@]23c4c5ccc(O)c4O[C@H]2[C@@H](O[C@@H]2O[C@H](C(=O)O)[C@@H](O)[C@H](O)[C@H]2O)C=C[C@H]3[C@H]1C5; experiment: cells, lysate or membranes named; conditions: other: HEK293-hOATP2B1 cells, 0.25 to 100 μM, pH7.4, 37 °C, 20 min, pH 7.4
Excerpt: V is the initial uptake rate of the substrate (pmol/min/mg protein), S is the substrate concentration in the medium (μM) and Pdif is the uptake clearance corresponding to the passive diffusion and nonspecific binding to the cell surface. Unpaired two-side Student’s t-test was applied for comparisons of two groups’ data. A P value < 0.05 was considered statistically significant.

## C[C@]12CC[C@@H]3c4ccc(OS(=O)(=O)[O-])cc4CC[C@H]3[C@@H]1CCC2=O.[Na+] [E-3-S, estrone-3-sulfate sodium salt]
hOATP2B1 [1]
  increase of intracellular accumulation in HEK293-hOATP2B1 compared to HEK293-MOCK: 2 to 3 fold

## CN1CC[C@]23c4c5ccc(O[C@@H]6O[C@H](C(=O)O)[C@@H](O)[C@H](O)[C@H]6O)c4O[C@H]2[C@@H](O)C=C[C@H]3[C@H]1C5 [M3G, morphine-3-glucuronide]
hOATP2B1 [1]
  increase of intracellular accumulation in HEK293-hOATP2B1 compared to HEK293-MOCK: didn’t show any differences

## CN1CC[C@]23c4c5ccc(O)c4O[C@H]2[C@@H](O[C@@H]2O[C@H](C(=O)O)[C@@H](O)[C@H](O)[C@H]2O)C=C[C@H]3[C@H]1C5 [M6G, morphine-6-glucuronide]
hOATP2B1 [2]
  concentration in HEK293-hOATP2B1 cells at pH6.0 relative to pH7.4: 2.05 fold
hOATP2B1 [1]
  increase of intracellular accumulation in HEK293-hOATP2B1 compared to HEK293-MOCK: more than 2 fold
hOATP2B1 [1]; HEK293-MOCK cells
  intracellular accumulation: 0.26 nM
hOATP2B1 [1]; HEK293-hOATP2B1 cells
  intracellular accumulation: 0.71 nM

## CC(C)n1c(/C=C/C(O)CC(O)CC(=O)O)c(-c2ccc(F)cc2)c2ccccc21 (centres unmarked) [fluvastatin]
hOATP2B1 [1]
  increase of intracellular accumulation in HEK293-hOATP2B1 compared to HEK293-MOCK: 2 to 3 fold

B1: hOATP2B1 (Homo sapiens) (protein)
chain: MGPRIGPAGEVPQVPDKETKATMGTENTPGGKASPDPQDVRPSVFHNIKLFVLCHSLLQLAQLMISGYLKSSISTVEKRFGLSSQTSGLLASFNEVGNTALIVFVSYFGSRVHRPRMIGYGAILVALAGLLMTLPHFISEPYRYDNTSPEDMPQDFKASLCLPTTSAPASAPSNGNCSSYTETQHLSVVGIMFVAQTLLGVGGVPIQPFGISYIDDFAHNSNSPLYLGILFAVTMMGPGLAFGLGSLMLRLYVDINQMPEGGISLTIKDPRWVGAWWLGFLIAAGAVALAAIPYFFFPKEMPKEKRELQFRRKVLAVTDSPARKGKDSPSKQSPGESTKKQDGLVQIAPNLTVIQFIKVFPRVLLQTLRHPIFLLVVLSQVCLSSMAAGMATFLPKFLERQFSITASYANLLIGCLSFPSVIVGIVVGGVLVKRLHLGPVGCGALCLLGMLLCLFFSLPLFFIGCSSHQIAGITHQTSAHPGLELSPSCMEACSCPLDGFNPVCDPSTRVEYITPCHAGCSSWVVQDALDNSQVFYTNCSCVVEGNPVLAGSCDSTCSHLVVPFLLLVSLGSALACLTHTPSFMLILRGVKKEDKTLAVGIQFMFLRILAWMPSPVIHGSAIDTTCVHWALSCGRRAVCRYYNNDLLRNRFIGLQFFFKTGSVICFALVLAVLRQQDKEARTKESRSSPAVEQQLLVSGPGKKPEDSRV
[3]
  Km: 80.31 ± 21.75 µM

Source: paper PMC5024137 (Scientific Reports, 2016)
